Data published in the OligoGym collection.
Oligonucleotides are written 5' to 3', each unit as a sugar letter and its base; * is a phosphorothioate linkage, no mark a phosphodiester; rarer units and linkages stand in square brackets, end groups in braces. Plain capitals give the bases only. d = 2'-deoxy (DNA); r = 2'-OH (RNA)

Target: not listed separately
Assay: reporter assay of Huesken 2005
Conditions: siRNA
Note: test concentration or dose not given here.

Substance | normalised inhibition (eCFP-eYFP dual reporter) [%]
sense rArArArCrGrCrCrUrArCrGrGrGrArGrUrCrArAdTdT / antisense rUrUrGrArCrUrCrCrCrGrUrArGrGrCrGrUrUrUdGdC | 93.6
sense rArArGrArArArCrUrUrGrCrUrCrCrArGrArUrUdTdT / antisense rArArUrCrUrGrGrArGrCrArArGrUrUrUrCrUrUdCdT | 79

Target: UBE2V1
Assay: reporter assay of Huesken 2005
Conditions: siRNA

Substance | normalised inhibition (eCFP-eYFP dual reporter) [%]
sense rUrArUrArGrCrArUrCrArArArGrUrUrGrUrCrCdTdT / antisense rGrGrArCrArArCrUrUrUrGrArUrGrCrUrArUrAdTdG | 47
sense rUrCrArArArGrUrUrGrUrCrCrUrGrCrArArGrAdTdT / antisense rUrCrUrUrGrCrArGrGrArCrArArCrUrUrUrGrAdTdG | 89.8
sense rUrCrArUrArUrArGrCrArUrCrArArArGrUrUrGdTdT / antisense rCrArArCrUrUrUrGrArUrGrCrUrArUrArUrGrAdAdT | 49
sense rUrCrCrCrUrCrArGrCrCrGrCrCrCrGrArArGrGdTdT / antisense rCrCrUrUrCrGrGrGrCrGrGrCrUrGrArGrGrGrAdGdT | 46.6
sense rUrCrGrCrArArUrUrUrCrCrGrArCrUrGrUrUrGdTdT / antisense rCrArArCrArGrUrCrGrGrArArArUrUrGrCrGrAdGdG | 85.6
sense rUrCrGrGrCrGrCrCrUrArArUrGrArUrGrUrCrUdTdT / antisense rArGrArCrArUrCrArUrUrArGrGrCrGrCrCrGrAdAdG | 78.8
sense rUrCrUrArGrArArGrArUrGrArCrGrArArGrArCdTdT / antisense rGrUrCrUrUrCrGrUrCrArUrCrUrUrCrUrArGrAdCdC | 58
sense rUrGrArArCrCrUrArGrArArArArUrUrUrCrArCdTdT / antisense rGrUrGrArArArUrUrUrUrCrUrArGrGrUrUrCrAdAdG | 43
sense rUrGrArGrUrGrArUrGrArArGrGrArArGrArCrUdTdT / antisense rArGrUrCrUrUrCrCrUrUrCrArUrCrArCrUrCrAdGdT | 62.3
sense rUrGrCrUrArGrCrArArArArUrGrGrCrArGrArAdTdT / antisense rUrUrCrUrGrCrCrArUrUrUrUrGrCrUrArGrCrAdCdT | 71.4
sense rUrGrGrArArGrArArCrUrCrGrArArGrArArGrGdTdT / antisense rCrCrUrUrCrUrUrCrGrArGrUrUrCrUrUrCrCrAdAdC | 59.9
sense rUrGrGrCrArGrArArUrUrCrArUrArUrArGrCrAdTdT / antisense rUrGrCrUrArUrArUrGrArArUrUrCrUrGrCrCrAdTdT | 89.7
sense rUrGrGrGrCrCrUrCrCrArArGrArArCrArArUrUdTdT / antisense rArArUrUrGrUrUrCrUrUrGrGrArGrGrCrCrCrAdAdT | 57.1
sense rUrGrGrGrGrUrCrUrArGrArArGrArUrGrArCrGdTdT / antisense rCrGrUrCrArUrCrUrUrCrUrArGrArCrCrCrCrAdGdC | 38.8
sense rUrUrArArArArUrArGrArArUrGrUrGrGrArCrCdTdT / antisense rGrGrUrCrCrArCrArUrUrCrUrArUrUrUrUrArAdGdG | 38.8
sense rUrUrCrArCrUrGrCrArArArGrGrArGrUrArArAdTdT / antisense rUrUrUrArCrUrCrCrUrUrUrGrCrArGrUrGrArAdAdT | 81.4
sense rUrUrCrCrGrArCrUrGrUrUrGrGrArArGrArArCdTdT / antisense rGrUrUrCrUrUrCrCrArArCrArGrUrCrGrGrArAdAdT | 52.3
sense rUrUrGrUrCrCrUrGrCrArArGrArGrCrUrUrCrGdTdT / antisense rCrGrArArGrCrUrCrUrUrGrCrArGrGrArCrArAdCdT | 51.9
